From patent US12187709B2 (Genentech, Inc., priority 2021, dated 2025)

How the values were obtained:
Cbl-b = Cbl-b (Homo sapiens (Human), UniProt Q13191); assay: Cbl-b LCK Ub TR-FRET assay (Cbl-b Lck HTRF); format: biochemical; conditions: for IC50: Cbl-b LCK Ub TR-FRET; for fold-selectivity (Cbl-b over C-cbl): ratio C-cbl Lck HTRF IC50 / Cbl-b Lck HTRF IC50
How it was run: (§1)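 Signal is read once the detection mix has stood 20 min at ambient temperature. Curves are anchored by DMSO as maximum and by omission of LCK as minimum.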

c-Cbl = c-Cbl (Homo sapiens (Human), UniProt P22681); assay: C-Cbl LCK Ub TR-FRET assay (C-cbl Lck HTRF); format: biochemical
c-Cbl, sequence (P22681 47-435): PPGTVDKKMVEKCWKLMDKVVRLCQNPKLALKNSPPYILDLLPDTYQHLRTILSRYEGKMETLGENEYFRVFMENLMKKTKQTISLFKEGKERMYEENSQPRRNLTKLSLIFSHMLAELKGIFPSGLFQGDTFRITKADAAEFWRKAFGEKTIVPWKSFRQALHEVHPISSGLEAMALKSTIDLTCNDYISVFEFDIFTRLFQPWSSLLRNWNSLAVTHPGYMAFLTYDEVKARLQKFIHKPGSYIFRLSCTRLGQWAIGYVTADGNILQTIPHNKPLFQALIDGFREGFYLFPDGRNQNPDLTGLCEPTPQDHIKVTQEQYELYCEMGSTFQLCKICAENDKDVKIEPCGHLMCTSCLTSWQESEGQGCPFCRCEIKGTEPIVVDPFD
How it was run: as §1

[1] = target: Human Cbl-b (residues 40-426) (Homo sapiens (Human), UniProt Q13191); assay: Cbl-b SPR assay; format: binding; conditions: for Fold of selectivity: C-cbl SPR Kd vs Cbl-b SPR Kd; for Kd: SPR, 20° C.
Human Cbl-b (residues 40-426), sequence (Q13191 40-426): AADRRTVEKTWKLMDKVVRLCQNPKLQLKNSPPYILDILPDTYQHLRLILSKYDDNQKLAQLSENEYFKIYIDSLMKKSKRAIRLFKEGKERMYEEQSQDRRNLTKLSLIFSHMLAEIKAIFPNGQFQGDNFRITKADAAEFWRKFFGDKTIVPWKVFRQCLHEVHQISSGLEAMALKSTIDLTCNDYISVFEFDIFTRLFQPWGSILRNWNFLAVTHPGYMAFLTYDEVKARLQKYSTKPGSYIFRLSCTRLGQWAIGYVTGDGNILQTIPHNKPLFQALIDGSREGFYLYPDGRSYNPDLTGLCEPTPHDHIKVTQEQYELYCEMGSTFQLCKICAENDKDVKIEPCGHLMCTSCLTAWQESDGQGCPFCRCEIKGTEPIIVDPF
How it was run: (§2)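 Protein captured at 1300-1500 RU; compounds run as 6-point 2-fold series in multi-cycle kinetics (60 s contact, 40 μl/min, 120-1200 s dissociation), fitted 1:1. For slow binders, kd came from chaser-compound occupancy over time, fixed in a single-cycle fit (5 concentrations, top 500 nM).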

c-Cbl (residues 47-435) = c-Cbl (residues 47-435) (Homo sapiens (Human), UniProt P22681); assay: c-Cbl SPR assay; format: binding; conditions: 20° C.
c-Cbl (residues 47-435), sequence (P22681 47-435): as the sequence (P22681 47-435) above
How it was run: as §2

Cbl-b, sequence (Q13191 40-426): as the sequence (Q13191 40-426) above

IC50 (Cbl-b)	fold-selectivity (Cbl-b over C-cbl) (Cbl-b)	IC50 (c-Cbl)	Fold of selectivity [1]	Kd [1]	Kd (c-Cbl (residues 47-435))	SMILES
5.2 nM	1.4x	7.1 nM	5.5×	0.4 nM	2.2 nM	Cn1cnnc1C(c1cccc(N2Cc3c(cc(CNC4(C)CCC4)cc3C(F)(F)F)C2=O)c1)[C@H]1C[C@@H](Cl)C1 (single isomer, unassigned) [Compound 357]
4.8 nM	0.85x	4.1 nM	2.1×	0.4 nM	0.82 nM	CC[C@@H](c1cccc(N2Cc3c(Cl)cc(CNC4(C)CCC4)cc3C2=O)c1)c1nncn1C (single isomer, unassigned) [Compound 359]
92 nM	6.4x	590 nM	10×	84 nM	840 nM	CO[C@H]1C[C@](c2cccc(N3Cc4c(cc([C@H](N)C(C)(C)C)cc4C(F)(F)F)C3=O)c2)(c2nncn2C)C1 (single isomer, unassigned) [Compound 360]
8.1 nM	4.4x	36 nM	21×	4 nM	84 nM	CO[C@H]1C[C@](c2cccc(N3Cc4c(cc([C@@H](N)C(C)(C)C)cc4C(F)(F)F)C3=O)c2)(c2nncn2C)C1 (single isomer, unassigned) [Compound 361]
6 nM	6.3x	38 nM	21×	2.9 nM	59 nM	Cn1cnnc1C(c1cccc(N2Cc3c(cc(CNC4(C)CCC4)cc3C(F)(F)F)C2=O)c1)[C@H]1C[C@@H](CC#N)C1 (single isomer, unassigned) [Compound 362]
61 nM	2.3x	140 nM	3.6×	78 nM	280 nM	Cn1cnnc1C(c1cccc(N2Cc3c(cc(CNC4(C)CCC4)cc3C(F)(F)F)C2=O)c1)[C@H]1C[C@H](CC#N)C1 (single isomer, unassigned) [Compound 363]
2.5 nM	1.3x	3.3 nM	4.4×	0.55 nM	2.4 nM	Cn1cnnc1C(c1cccc(N2Cc3c(cc(CNC4(C)CCC4)cc3C(F)(F)F)C2=O)c1)[C@H]1C[C@H](CC#N)C1 (single isomer, unassigned) [Compound 364]
4.8 nM	1.2x	5.9 nM	6×	0.85 nM	7.2 nM	Cn1cnnc1C(c1cccc(N2Cc3c(cc(CNC4(C)CCC4)cc3C(F)(F)F)C2=O)c1)[C@H]1C[C@@H](CC#N)C1 (single isomer, unassigned) [Compound 365]
240 nM	4.3x	1000 nM	7.2×	210 nM	1500 nM	CO[C@H]1C[C@@](O)(C(c2cccc(N3Cc4c(cc(CNC5(C)CCC5)cc4C(F)(F)F)C3=O)c2)c2nncn2C)C1 (single isomer, unassigned) [Compound 369]
–	9.0x	490 nM	16×	46 nM	790 nM	Cn1cnnc1[C@H](c1cccc(N2Cc3c(cc(CNC4(C)CCC4)cc3C(F)(F)F)C2=O)c1)[C@H]1C[C@H](C)C1 (single isomer, unassigned) [Compound 376, 2-(3-((S)-(4-methyl-4H-1,2,4-triazol-3-yl)((1r,3S)-3-methylcyclobutyl)methyl)phenyl)-6-(((1-methylcyclobutyl)amino)methyl)-4-(trifluoromethyl)isoindolin-1-one]
240 nM	11x	2500 nM	11×	240 nM	2600 nM	Cn1cnnc1[C@H](c1cccc(N2Cc3c(cc(CNC4(C)CCC4)cc3C(F)(F)F)C2=O)c1)[C@H]1C[C@@H](C)C1 (single isomer, unassigned) [Compound 377]
9.4 nM	6.0x	56 nM	14×	6.9 nM	96 nM	Cn1cnnc1[C@@H](c1cccc(N2Cc3c(cc(CNC4(C)CCC4)cc3C(F)(F)F)C2=O)c1)[C@H]1C[C@H](C)C1 (single isomer, unassigned) [Compound 378]
6.8 nM	1.6x	9.5 nM	6.7×	0.9 nM	6 nM	Cn1cnnc1[C@@H](c1cccc(N2Cc3c(cc(CNC4(C)CCC4)cc3C(F)(F)F)C2=O)c1)[C@H]1C[C@@H](C)C1 (single isomer, unassigned) [Compound 379]
6 nM	1.2x	7.1 nM	5.0×	0.8 nM	4 nM	Cn1cnnc1[C@@H](c1cccc(N2Cc3c(cc(CNC4(C)CCC4)cc3C(F)(F)F)C2=O)c1)C1(F)COC1 (single isomer, unassigned) [Compound 380]
8.8 nM	1.9x	16 nM	6.0×	2.7 nM	16 nM	Cn1cnnc1[C@H](c1cccc(N2Cc3c(cc(CNC4(C)CCC4)cc3C(F)(F)F)C2=O)c1)C1(F)COC1 (single isomer, unassigned) [Compound 381]
150 nM	3.0x	450 nM	0.8×	190 nM	150 nM	CC(=O)C1CC([C@H](c2cccc(N3Cc4c(cc(CNC5(C)CCC5)cc4C(F)(F)F)C3=O)c2)c2nncn2C)C1 (single isomer, unassigned) [Compound 382]
19 nM	1.3x	24 nM	7.7×	2.6 nM	20 nM	CC(=O)C1CC([C@@H](c2cccc(N3Cc4c(cc(CNC5(C)CCC5)cc4C(F)(F)F)C3=O)c2)c2nncn2C)C1 (single isomer, unassigned) [Compound 383]
24 nM	2.8x	66 nM	5.6×	7 nM	39 nM	CC(=O)C1CC([C@@H](c2cccc(N3Cc4c(cc(CNC5(C)CCC5)cc4C(F)(F)F)C3=O)c2)c2nncn2C)C1 (single isomer, unassigned) [Compound 384]
260 nM	2.8x	720 nM	0.7×	560 nM	390 nM	CC(=O)C1CC([C@H](c2cccc(N3Cc4c(cc(CNC5(C)CCC5)cc4C(F)(F)F)C3=O)c2)c2nncn2C)C1 (single isomer, unassigned) [Compound 385]
130 nM	7.8x	1000 nM	9.5×	200 nM	1900 nM	Cn1cnnc1[C@@H](c1cccc(N2Cc3c(cc(CNC4(C)CCC4)cc3C(F)(F)F)C2=O)c1)C1CC(OC(F)F)C1 (single isomer, unassigned) [Compound 387]
120 nM	7.6x	870 nM	9.7×	100 nM	970 nM	Cn1cnnc1[C@@H](c1cccc(N2Cc3c(cc(CNC4(C)CCC4)cc3C(F)(F)F)C2=O)c1)C1CC(OC(F)F)C1 (single isomer, unassigned) [Compound 388]
5.1 nM	1.7x	8.9 nM	4.4×	2.9 nM	13 nM	Cn1cnnc1[C@H](c1cccc(N2Cc3c(cc(CNC4(C)CCC4)cc3C(F)(F)F)C2=O)c1)C1CC(OC(F)F)C1 (single isomer, unassigned) [Compound 389]
5.5 nM	1.0x	5.5 nM	3.0×	0.6 nM	1.7 nM	Cn1cnnc1[C@H](c1cccc(N2Cc3c(cc(CNC4(C)CCC4)cc3C(F)(F)F)C2=O)c1)C1CC(OC(F)F)C1 (single isomer, unassigned) [Compound 390]
10 nM	1.4x	14 nM	5.1×	7.5 nM	38 nM	CC[C@@](O)(c1cccc(N2Cc3c(cc(CNC4(C)CCC4)cc3C(F)(F)F)C2=O)c1)c1nncn1C (single isomer, unassigned) [Compound 392]
190 nM	2.4x	460 nM	3.5×	150 nM	540 nM	CC[C@](F)(c1cccc(N2Cc3c(cc(CNC4(C)CCC4)cc3C(F)(F)F)C2=O)c1)c1nncn1C (single isomer, unassigned) [Compound 393]
4.6 nM	0.8x	3.8 nM	2.4×	0.65 nM	1.4 nM	CC[C@@](F)(c1cccc(N2Cc3c(cc(CNC4(C)CCC4)cc3C(F)(F)F)C2=O)c1)c1nncn1C (single isomer, unassigned) [Compound 394]
